The source of these data is US20240285613A1, “TREATMENT FOR AUTOIMMUNE DISEASES” (LDN Pharma Limited, priority 2021, published 2024).

Holding throughout (format): cell-based, human
Conditions in all cases: 4 h

Assay [1] deals with 5-HT receptor 4, transcript variant hb, mRNA. Briefly: Microarray gene expression in CD3+ lymphocytes, probe ILMN_1808258 (HTR4).
Method: (§1) CD3+ lymphocytes were isolated from the blood of haematologically normal volunteers. Cells placed into 25 cm^3 flasks at a concentration of 1×10^6/ml, and left to equilibrate in an incubator with a humidified atmosphere and 5% CO2 in air at 37° C. […] RNA extraction was performed using Trizol according to standard procedures, before being processed for microarray analysis according to the standard methodologies. Briefly, equal amounts of biotinylated cRNA was hybridised to the Illumina human HT 12-v3 arrays for 18 h and subsequently processed according to manufacturer's instructions before scanning on an Illumina BeadArray Reader. The image data were processed using default values in GenomeStudio v2009.1 with imputation of missing data, before loading onto GeneSpring v9.0 for data normalisation and filtering. Data analyses were performed using Excel software, and the ratio of gene expression signals in treated vs. untreated calculated.
For assay [2], the system named is 5-HT receptor 3A, transcript variant 1, mRNA. As to the kind of experiment: Microarray gene expression in CD3+ lymphocytes, probe ILMN_1681492 (HTR3A).
Method: as §1
Assay [3] has as its system 5-HT receptor 4, transcript variant a, mRNA. Briefly: Microarray gene expression in CD3+ lymphocytes, probe ILMN_1676350 (HTR4).
Method: as §1
The subject of another assay is 5-HT receptor 1E, mRNA. Briefly: Microarray gene expression in CD3+ lymphocytes, probe ILMN_1794095 (HTR1E).
Assay [4] has as its system 5-HT receptor 7 (adenylate cyclase-coupled), transcript variant a, mRNA. As to the kind of experiment: Microarray gene expression in CD3+ lymphocytes, probe ILMN_1744217 (HTR7).
Method: as §1
Assay [5] has as its system mRNA for one or more of 5-HT receptor proteins. Briefly: Microarray gene expression in CD3+ lymphocytes, summary over 5-HT receptors.
Method: as §1
The subject of another assay is 5-HT receptor 2B, mRNA. As to the kind of experiment: Microarray gene expression in CD3+ lymphocytes, probe ILMN_1735764 (HTR2B).
For assay [6], the system named is 5-HT receptor 3A, transcript variant 2, mRNA. Briefly: Microarray gene expression in CD3+ lymphocytes, probe ILMN_2371079 (HTR3A).
Method: as §1
A further assay relates to 5-HT receptor 2C, mRNA. As to the kind of experiment: Microarray gene expression in CD3+ lymphocytes, probe ILMN_1801357 (HTR2C).
Assay [7] relates to 5-HT receptor 3A, transcript variant 2, mRNA. As to the kind of experiment: Microarray gene expression in CD3+ lymphocytes, probe ILMN_1662070 (HTR3A).
Method: as §1

Method for 5-HT receptor 1E, mRNA: as §1
Method for 5-HT receptor 2B, mRNA: as §1
Method for 5-HT receptor 2C, mRNA: as §1

As to `O=C1CC[C@@]2(O)[C@H]3Cc4ccc(O)c5c4[C@@]2(CCN3CC2CC2)[C@H]1O5` [NTX, 17-cyclopropylmethyl-4.5-epoxy-3,14-dihydroxymorphinan-6-one], the entries for the “gene expression signal, HTR4 transcript variant hb” value in assay [1] (LDN 10 nM) and in [1] (NTX 10 uM) were 93.50 and 88.20, respectively. Further, the entries for the “gene expression signal, HTR3A transcript variant 1” value in [2] (LDN 10 nM) and in assay [2] (NTX 10 uM) were 94.00 and 86.75, respectively. In addition, the results for the “gene expression signal, HTR4 transcript variant a” value in [3] (LDN 10 nM) and in assay [3] (NTX 10 uM) were 100.20 and 96.10, respectively. The “gene expression signal, HTR1E” value in the assay on 5-HT receptor 1E, mRNA (LDN 10 nM) was found to be 101.20; with 5-HT receptor 1E, mRNA (NTX 10 uM), 95.70. For the same compound, the “gene expression signal, HTR7 transcript variant a” value in assay [4] (LDN 10 nM) amounted to 80.00; in assay [4] (NTX 10 uM), 86.60. Further, the “levels of mRNA for one or more of 5-HT receptor proteins” value in assay [5] (higher dose naltrexone (10 uM)) and in [5] (low dose naltrexone (10 nM)) was “increase the levels of mRNA” in each case. The “gene expression signal, HTR2B” value in the assay with 5-HT receptor 2B, mRNA (LDN 10 nM) came out at 147.45; in the assay on 5-HT receptor 2B, mRNA (NTX 10 uM), 177.95. Moreover, the “gene expression signal, HTR3A transcript variant 2” value in assay [6] (LDN 10 nM) was 124.70; in [6] (NTX 10 uM) it was 151.75; in assay [7] (LDN 10 nM) it was 82.35; in assay [7] (NTX 10 uM), 80.60. For the same compound, the “gene expression signal, HTR2C” value in the assay on 5-HT receptor 2C, mRNA (LDN 10 nM) is recorded as 85.50; in the assay on 5-HT receptor 2C, mRNA (NTX 10 uM), 89.50.
